Patent US20240366611A1, “METHODS OF TREATING A DISEASE OR DISORDER” (Ascentage Pharma (Suzhou) Co., Ltd., priority 2021, published 2024)

Tests used:
Hbb-bh1 mRNA = Hbb-bh1 mRNA level in whole blood (qPCR, relative to GAPDH); type: in vivo, CD-1 mice
Protocol: (§1) Female CD-1 mice (8 weeks old) were housed and handled in a temperature-controlled environment with a 12-h light/12-h dark cycle. A total of 25 mice were assigned to 5 groups by randomization based on body weight, followed by 5 days of treatment with vehicle (po, qd), 3 mg/kg Cpd. 73 (po, qd), 10 mg/kg Cpd. 73 (po, qd), 30 mg/kg Cpd. 73 (po, qd), or 90 mg/kg Cpd. 73 (po, qd). The protocols and procedures involving the care and use of animals were approved by the Institutional Animal Care and Use Committee (IACUC) of WuXiAppTec (Shanghai) Co., Ltd. (Shanghai, China).
Mouse Hbb-bh1 gene, the homolog to human HBG1 gene encoding γ hemoglobin, is used as an efficacy biomarker in wide-type CD-1 mice. One hundred and twenty μL whole blood was collected for RNA isolation following the instructions of Trizol LS reagent (Invitrogen, 10296028). The relative expression of Hbb-bh1 mRNA to GAPDH mRNA were quantified by qPCR. The relative expression of Hbb-bh1 mRNA in the whole blood of CD-1 mice increased with increasing dose of Cpd. 73 from 3 mg/kg (qd×5 days) to 90 mg/kg (qd×5 days). The Hbb-bh1 mRNA levels were 82.2%, 114.6% and 178.3% of the vehicle control group when Cpd. […] 73 (p<0.05, vs. vehicle). The increased expression of Hbb-bh1 mRNA may result in increased expression of mouse βh1 hemoglobin.

[1] = system: H3K27me3 in PBMC monocytes; experiment: H3K27me3 level in PBMC monocytes (FACS, H3K27me3/H3 ratio); type: in vivo, CD-1 mice; details: vs vehicle
Protocol: as §1
Mice were euthanatized 4 hours post the last dose. Whole blood and bone marrow were collected. Bone marrow cells were flushed from femur and tibia with IMDM+/+ (IMDM, 10% heat inactivated FBS, 100 U/mL penicillin and 100 μg/mL streptomycin). Aggregate was removed by passing through 40 μm cell strainer. 5 mL DPBS was used to pellet the cells after centrifugation, and the cell number was counted. Whole blood was added with 1×RBC lysis buffer remove RBC (whole blood: 1×RBC lysis buffer=1:9), and mononuclear cells were collected by centrifugation. The cells were then washed with 1×DPBS for once and resuspended in 3 ml DPBS after centrifugation followed by cell number counting.
Bone marrow cells were stained with FITC-conjugated anti-mouse TER-119 antibody (Thermo Fisher, 11-5921-82) and eFluor 506-conjugated anti-mouse CD45 antibody (Thermo Fisher, 69-0451-82). TER-119+ cells were erythroid lineage cells. PBMC were stained with eFlour 450-conjugated anti-mouse CD11b antibody (Invitrogen, 48-0112-82), PerCP-eFluor710-conjugated anti-mouse CD3 antibody (Invitrogen, 46-0032-82), eFluor 506-conjugated anti-mouse CD45 antibody (Thermo Fisher, 69-0451-82). CD45+CD3−CD11b+ cells were monocytes from PBMC.
After washing, centrifugation and fixation, the cells were permeabilized and further incubated with antibodies of H3K27m3 (Tri-Methyl-Histone H3 (Lys27) (C36B11) Rabbit mAb (PE Conjugate), CST, 40724S) and H3 (Histone H3 (D1H2) XP® Rabbit mAb (Alexa Fluor®647 Conjugate), CST, 12230S), followed by FACS analysis to quantify the mean fluorescence intensity of target cells. The ratio between the fluorescence intensity of H3K27me3 and H3 were used to reflect the level of H3K27me3 in the cells.

[2] = system: HBG mRNA in human CD34+ HSC; experiment: HBG mRNA level in human CD34+ HSC (qRT-PCR); type: cell-based; details: 7 days of treatment
Protocol: Human cord blood CD34+ hematopoietic stem cells (HSC) were first expanded in the expansion medium (StemSpan SFEM II+StemSpan CD34 Expansion Supplement) to achieve the desired number of cells, and then differentiated in differentiation medium (StemSpan SFEM II+StemSpan Erythroid Expansion Supplement (100×)) for three days without drug treatment. Various concentrations of Cpd. 73 were added on the fourth day of differentiation and further incubated with the cells for another 7 days. 33 mM Hydroxyurea was used as the control.
After 7 days of treatment, the cells were collected. Total RNA was isolated using Trizol LS reagent (Invitrogen-10296028) and 1 μg RNA of each sample was reverse transcribed into cDNA using High Capacity cDNA Reverse Transcription Kit (AB (Applied Biosystems)-4374966), according to the manufacturer's instructions. Quantitative RT-PCR (qRT-PCR) was performed using an Applied Biosystems QuantStudio 7 Flex system with the primer pairs shown as below: hHBG-mRNA-F1 (5′-[…]-3′) and hHBG-mRNA-R1 (5′-TCACTCAGCTGGGCAAAGG-3′). […] The HBG mRNA level were 1.09-, 2.49-, 7.84-, 9.69- and 12.2-folds of the vehicle group when the cells were treated with 0.01 μM, 0.03 μM, 0.1 μM, 0.3 μM and 1.0 μM Cpd. 73 respectively. […] 73 which increased HBG mRNA by 12.2 folds (p<0.0001, vs. vehicle). The HBG mRNA level of cells treated with 33 mM Hydroxyurea, an approved medicine for SCD, was 6.46-folds of the vehicle group.

CC(C)N1Cc2cc(C(F)(F)F)ncc2-c2cnc(NCc3c(F)ccc4c3CCO4)n3cnc(c23)C1=O [Cpd. 73, 12-(((5-fluoro-2,3-dihydrobenzofuran-4-yl)methyl)amino)-4-isopropyl-7-(trifluoromethyl)-4,5-dihydro-3H-2,4,8,11,12a-pentaazabenzo[4,5]cycloocta[1,2,3-cd]inden-3-one]
Hbb-bh1 mRNA level, of the vehicle control group (Hbb-bh1 mRNA; 3 mg/kg po qd×5 days): 82.2% | Hbb-bh1 mRNA level, of the vehicle control group (Hbb-bh1 mRNA; 10 mg/kg po qd×5 days): 114.6% | Hbb-bh1 mRNA level, of the vehicle control group (Hbb-bh1 mRNA; 30 mg/kg po qd×5 days): 178.3% | Hbb-bh1 mRNA, fold of increase (Hbb-bh1 mRNA; 90 mg/kg po qd×5 days, p<0.05 vs vehicle): 3.04 fold | percent of decrease of H3K27me3 level ([1]; 3 mg/kg po qd×5 days): 17.9% | percent of decrease of H3K27me3 level ([1]; 10 mg/kg po qd×5 days): 40.5% | percent of decrease of H3K27me3 level ([1]; 30 mg/kg po qd×5 days): 8.8% | percent of decrease of H3K27me3 level ([1]; 90 mg/kg po qd×5 days): 41.2% | HBG mRNA level, folds of the vehicle group ([2]; 0.01 μM): 1.09 folds | HBG mRNA level, folds of the vehicle group ([2]; 0.03 μM): 2.49 folds | HBG mRNA level, folds of the vehicle group ([2]; 0.1 μM): 7.84 folds | HBG mRNA level, folds of the vehicle group ([2]; 0.3 μM): 9.69 folds | HBG mRNA level, folds of the vehicle group ([2]; 1.0 μM, maximal effect, p<0.0001 vs vehicle): 12.2 folds
